Measurements: patent publication US11845741B2, “Pilocarpine ionic liquids for treatment of glaucoma” (VIRGINIA COMMONWEALTH UNIVERSITY INTELLECTUAL PROPERTY …, priority 2020, dated 2023)
Entries after “also recorded” stand apart in the source; their conditions may differ. Counter-ions that a name gives are not always drawn.

How the values were obtained:
[1] = Ex vivo corneal permeation, Franz diffusion cell; format: in vitro ADME; conditions: rabbit cornea; for amount permeated through the cornea within 4 h: 200 μL of 27 mM in donor chamber
Procedure: Ex vivo corneal permeation studies. Corneas were extracted from fresh rabbit eyes and mounted immediately in a Franz diffusion cell system with the epithelial surface facing the donor chamber. In each test, Pilo, PiloHCl, or [Pilo-OEG]Cl (200 μL, 27 mM) was loaded to the donor chamber. The receiver chamber was filled with 5 mL of PBS. At pre-determined time points up to 4 h, an aliquot of 1 mL from the receiver chamber was collected via syringe and analyzed with UV-Vis spectrophotometer (U-3010, Hitachi). Fresh PBS (1 mL) was added to the receiver chamber following each sampling. All the experiments were conducted in triplicate. The permeability coefficient, P, was then determined based on the following equation: [formula] where dQ/dt is the steady-state slope of a cumulative flux curve (in this study, the data in 1 h is selected for dQ/dt calculation), C is drug concentration in the donor chamber, and A is the effective cross-sectional area (0.629 cm^2) available for diffusion.^22

[2] = literature value; cited from earlier work
[3] = Stability test: pH of aqueous solutions over 24 h; format: physicochemical; conditions: for pH of freshly prepared solution: 0 h
Procedure: (§1) Stability test. Fresh water solutions of Pilo, PiloHCl, and [Pilo-OEG]Cl (5 mM) were prepared and their pH at 0, 0.75, 4, 8, and 24 h was measured with a pH meter ([…]). The samples at 0 and 24 h were further analyzed with LC-MS/MS using a Surveyor Plus HPLC System and triple stage quadrupole (TSQ) Quantum Ultra Mass Spectrometer (Thermo Fisher Scientific, USA) equipped with an auto-sampler and electrospray ionization (ESI) source. Separation was carried out on an Hypersil Gold column (150 mm×2.1 mm, […], Thermo) maintained at 25° C. The mobile phase consisted of 0.1% (v/v) formic acid water phase (A) and methanol phase (B). The gradient elution program was as follows: 95% of A at 0-5 min, and back to 95% of A at 23.1 min, re-conditioning of the column for 8 min. The flow rate was 0.2 mL/min A capillary temperature of 350° C., spray voltage of 4500 V, sheath gas of 30 arb, and auxiliary gas of 10 arb were maintained as the optimal instrument conditions. Unit resolution was used for Q1 (FWHM 0.7). Nitrogen was used as both sheath gas and auxiliary gas.

[4] = Stability test: LC-MS/MS analysis of aqueous solutions at 0 and 24 h; format: physicochemical; conditions: water solution, 5 mM
Procedure: as §1

[5] = system: HCE-2 human corneal epithelial cells; assay: Cytotoxicity assessment, WST-1 assay; format: cell-based; conditions: HCE-2 cells, 24 h, 1 mM to 50 mM
Procedure: (§2) Cytotoxicity assessment. HCE-2 human corneal epithelial cells were seeded in a 96-well plate at a density of 1×10^4 cell/well. After attachment, the cells were incubated with various concentrations of Pilo, PiloHCl and [Pilo-OEG]Cl for 24 h and cell viability was determined by using WST-1 assay. The medium for HCE-2 (ATCC CRL-11135, epithelial Adenovirus 12-SV40 hybrid transformed) was Keratinocyte-serum free medium supplemented with 0.05 mg/mL of bovine pituitary extract (BPE), 5 ng/mL of epidermal growth factor (EGF), 500 ng/mL of hydrocortisone and 0.005 mg/mL of insulin. The cytotoxicity of Pilo and [Pilo-OEG]Cl to NIH3T3 fibroblast cells was also tested.

[6] = Cytotoxicity assessment, WST-1 assay; format: cell-based, human; conditions: human, HCE-2 human corneal epithelial cells; HCE-2 cells, 24 h incubation, WST-1
Procedure: as §2

[7] = system: intraocular pressure (IOP); assay: In vivo IOP-lowering efficacy assessment; design: species or system normotensive adult Brown Norway female rats; conditions: for IOP reduction after second dose: second topical dose applied 4 hours after the first; for average IOP reduction after first dose: topical 2×5 μL, 82 mM pilocarpine equivalent, 45 min post-administration, n=4; for time of highest IOP reduction post-administration: topical instillation
Procedure: In vivo efficacy assessment. Normotensive adult Brown Norway female rats (Charles River Laboratories), 8 months old, were used in this work. The rats were given free access to food and water, 12 hours light and dark cycle in a temperature-controlled room (18-24° C.). The procedures conducted were approval by Virginia Commonwealth University IACUC. Rats were randomly grouped to two groups of four (n=4). The right eye of each rat was instilled with PiloHCl or [Pilo-OEG]Cl PBS solution (2×5 μL, 82 mM pilocarpine equivalent), one dose at 8:00 am and the second dose at 12:00 pm. The IOPs of both eyes were measured at 8:00 am (before dosing), 8:45 am, 12:00 pm (before the second dosing), 12:45 pm, and 16:00 pm using Icare TONOLAB tonometer TV02.

## CC[C@@H]1C(=O)OC[C@@H]1Cc1cncn1C [Pilo, Pilocarpine]
[1]; 4 h
  amount permeated through the cornea within 4 h: 27.8±14.7%
[1]; dQ/dt from data in 1 h
  permeability coefficient: 6.6 ×10⁻⁶ cm/s
[2]
  pKa reported in the Merck Index: 7.15
[3]; water solution, 5 mM
  pH of freshly prepared solution: 9.2
[3]; water solution, 5 mM, 8 h
  pH of solution at 8 h: 8.7
[3]; water solution, 5 mM, 24 h
  pH of solution at 24 h: 8.2
[3]; water solution, calculated/estimated from pH at 0 h, 5 mM in water, read-out: dissociation constant (pKa)
  pKa: 7.28
[4]
  degradation products formed in solution (LC-MS): isopilocarpine formed (eluted at 2.02 min, m/z=209.06) and further hydrolyzed into acids
[5]
  cytotoxicity / cytocompatibility: cytocompatible

## CC[C@@H]1C(=O)OC[C@@H]1Cc1cncn1C [PiloHCl, pilocarpine hydrochloride]
[1]; 4 h, hydrochloride
  amount permeated through the cornea within 4 h: 8.1±1.8%
[1]; dQ/dt from data in 1 h, hydrochloride
  permeability coefficient: 1.5 ×10⁻⁶ cm/s
[3]; calculated/estimated from pH at 0 h, 5 mM in water, hydrochloride
  dissociation constant (pKa): 8.34
[3]; water solution, 5 mM, hydrochloride
  pH of freshly prepared solution: 5.3
[3]; water solution, 5 mM, 24 h
  pH stability of aqueous solution within 24 h: remain relatively stable
[4]; hydrochloride
  degradation products formed in solution (LC-MS): Isopilocarpine also formed
[5]; hydrochloride
  cytotoxicity / cytocompatibility: strong dose-dependent cytotoxicity
[6]
  IC50 at 24 h: 25 mM
[7]
  IOP reduction after second dose: ~1 mmHg
  average IOP reduction after first dose: 1.25 mmHg
  time of highest IOP reduction post-administration: 45 min

## CC[C@@H]1C(=O)OC[C@@H]1Cc1c[n+](CCOCCOCCO)cn1C.[Cl-] [[Pilo-OEG]Cl]
[1]
  permeability coefficient, fold higher than Pilo: 1 fold
  permeability coefficient, fold higher than PiloHCl: 8 fold
[1]; 4 h
  amount permeated through the cornea within 4 h: 51.6±8.1%
  amount permeated, fold higher than PiloHCl: 5 fold
[1]; rabbit, dQ/dt from data in 1 h, read-out: permeability coefficient
  Papp at 1 h, 27 mM: 13 ×10⁻⁶ cm/s
[3]; water solution, 5 mM
  pH of freshly prepared solution: 7.3
[3]; water solution, 5 mM, 24 h
  pH stability of aqueous solution within 24 h: remain relatively stable
[4]
  degradation products formed in solution (LC-MS): neither isopilocarpine or pilocarpine and isopilocarpine acids formed
[5]
  cytotoxicity / cytocompatibility: did not show apparent toxicity; also recorded: cytocompatible
[7]; first dose, statistical significance not established
  IOP reduction, fold versus PiloHCl: 2 fold
[7]
  IOP reduction after second dose: 2.625 mmHg
  average IOP reduction after first dose: 2.75 mmHg
  time of highest IOP reduction post-administration: 45 min
